Experimental data as given in BindingDB's records for doi:10.1021/jm0704898 (Georgetown University Medical Center, 2007).
Positions of bridges follow the written chain, without caps; N, C: chain ends. Residues, ends and D or L forms follow the SMILES beside them.

Assays:
Prothrombin = Prothrombin (Bos taurus, UniProt P00735); test: Enzyme Inhibition Assay; settings: pH 8.5; 22 °C
Method: (§1) The enzyme reaction was initiated by adding fluorescence peptide substrate to reaction mixture containing enzyme and test compounds. […] Hydrolysis rates were recorded in presence of six to seven different concentrations of inhibitor.

[1] = molecular target: T1, Suppressor of tumorigenicity 14 protein (Homo sapiens, UniProt Q9Y5Y6); test: Enzyme Inhibition Assay; settings: pH 8.5; 22 °C
T1 sequence (Q9Y5Y6 whole entry): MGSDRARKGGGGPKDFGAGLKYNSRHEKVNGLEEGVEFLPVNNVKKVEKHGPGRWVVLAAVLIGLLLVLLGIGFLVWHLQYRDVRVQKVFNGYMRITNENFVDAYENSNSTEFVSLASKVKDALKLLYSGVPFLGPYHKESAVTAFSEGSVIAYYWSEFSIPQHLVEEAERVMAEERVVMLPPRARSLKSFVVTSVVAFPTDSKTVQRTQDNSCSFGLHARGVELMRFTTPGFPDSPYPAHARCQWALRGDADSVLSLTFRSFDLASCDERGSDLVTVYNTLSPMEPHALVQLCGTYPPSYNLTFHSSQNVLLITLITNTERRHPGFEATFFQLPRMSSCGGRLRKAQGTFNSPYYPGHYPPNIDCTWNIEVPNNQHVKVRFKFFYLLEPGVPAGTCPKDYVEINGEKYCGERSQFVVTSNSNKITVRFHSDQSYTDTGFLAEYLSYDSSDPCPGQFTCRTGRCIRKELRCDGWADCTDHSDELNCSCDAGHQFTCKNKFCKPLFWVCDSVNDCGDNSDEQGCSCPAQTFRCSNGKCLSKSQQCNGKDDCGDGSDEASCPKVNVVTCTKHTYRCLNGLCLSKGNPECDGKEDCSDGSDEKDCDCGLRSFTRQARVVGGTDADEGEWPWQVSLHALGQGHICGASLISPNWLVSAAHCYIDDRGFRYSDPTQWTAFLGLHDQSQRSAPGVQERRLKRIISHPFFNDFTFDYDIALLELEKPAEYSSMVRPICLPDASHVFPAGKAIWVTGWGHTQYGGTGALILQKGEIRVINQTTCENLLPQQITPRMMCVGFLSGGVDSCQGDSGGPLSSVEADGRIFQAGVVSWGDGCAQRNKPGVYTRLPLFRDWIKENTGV
Method: as §1

SMILES | Ki (Prothrombin) [µM] | Ki [1] [µM]
CC[C@H](C)[C@@H]1NC(=O)[C@@H]2CCCN2C(=O)[C@@H]2CCCN2C(=O)[C@H]([C@@H](C)CC)NC(=O)[C@H](CO)NC(=O)[C@H](CCCCN)NC(=O)[C@H]([C@@H](C)O)NC(=O)[C@@H]2CSSC[C@H](NC1=O)C(=O)N[C@@H](Cc1ccccc1)C(=O)N1CCC[C@H]1C(=O)N[C@@H](CC(=O)O)C(=O)NCC(=O)N[C@@H](CCCNC(N)=O)C(=O)N2 [2-[(1R,4S,7S,13S,19S,22S,25S,28S,31R,34S,40S,43S,49S)-25-(4-aminobutyl)-49-benzyl-4,19-bis[(2S)-butan-2-yl]-34-[3-(carbamoylamino)propyl]-28-[(1R)-1-hydroxyethyl]-22-(hydroxymethyl)-3,6,12,18,21,24,27,30,33,36,39,42,48,51-tetradecaoxo-53,54-dithia-2,5,11,17,20,23,26,29,32,35,38,41,47,50-tetradecaazapentacyclo[29.20.4.0^{7,11}.0^{13,17}.0^{43,47}]pentapentacontan-40-yl]acetic acid] | 827 | 22.5
CC[C@H](C)[C@@H]1NC(=O)[C@@H]2CCCN2C(=O)[C@@H]2CCCN2C(=O)[C@H]([C@@H](C)CC)NC(=O)[C@H](CO)NC(=O)[C@H](CCCCCN)NC(=O)[C@H]([C@@H](C)O)NC(=O)[C@@H]2CSSC[C@H](NC1=O)C(=O)N[C@@H](Cc1ccccc1)C(=O)N1CCC[C@H]1C(=O)N[C@@H](CC(=O)O)C(=O)NCC(=O)N[C@@H](CCCN=C(N)N)C(=O)N2 [2-[(1R,4S,7S,13S,19S,22S,25S,28S,31R,34S,40S,43S,49S)-25-(5-aminopentyl)-49-benzyl-4,19-bis[(2S)-butan-2-yl]-34-(3-carbamimidamidopropyl)-28-[(1R)-1-hydroxyethyl]-22-(hydroxymethyl)-3,6,12,18,21,24,27,30,33,36,39,42,48,51-tetradecaoxo-53,54-dithia-2,5,11,17,20,23,26,29,32,35,38,41,47,50-tetradecaazapentacyclo[29.20.4.0^{7,11}.0^{13,17}.0^{43,47}]pentapentacontan-40-yl]acetic acid] | 45.6 | 28
CC[C@H](C)[C@@H]1NC(=O)[C@@H]2CCCN2C(=O)[C@@H]2CCCN2C(=O)[C@H]([C@@H](C)CC)NC(=O)[C@H](CO)NC(=O)[C@H](CCCNC(=N)N)NC(=O)[C@H]([C@@H](C)O)NC(=O)[C@@H]2CSSC[C@H](NC1=O)C(=O)N[C@@H](Cc1ccccc1)C(=O)N1CCC[C@H]1C(=O)N[C@@H](CC(=O)O)C(=O)NCC(=O)N[C@@H](CCCNC(=N)N)C(=O)N2 [2-[(1R,4S,7S,13S,19S,22S,25S,28S,31R,34S,40S,43S,49S)-49-benzyl-4,19-bis[(2S)-butan-2-yl]-25,34-bis(3-carbamimidamidopropyl)-28-[(1R)-1-hydroxyethyl]-22-(hydroxymethyl)-3,6,12,18,21,24,27,30,33,36,39,42,48,51-tetradecaoxo-53,54-dithia-2,5,11,17,20,23,26,29,32,35,38,41,47,50-tetradecaazapentacyclo[29.20.4.0^{7,11}.0^{13,17}.0^{43,47}]pentapentacontan-40-yl]acetic acid] | 0.86 | 4.75
CC[C@H](C)[C@@H]1NC(=O)[C@@H]2CCCN2C(=O)[C@@H]2CCCN2C(=O)[C@H]([C@@H](C)CC)NC(=O)[C@H](CO)NC(=O)[C@H](CCCCN)NC(=O)[C@H]([C@@H](C)O)NC(=O)[C@H](CO)NC(=O)[C@H](CCCN=C(N)N)NC(=O)CNC(=O)[C@H](CC(=O)O)NC(=O)[C@@H]2CCCN2C(=O)[C@H](Cc2ccccc2)NC(=O)[C@H](CO)NC1=O [2-[(1S,7S,10S,13S,16S,22S,25S,31S,34S,37S,40S,43S,46S)-40-(4-aminobutyl)-16-benzyl-10,46-bis[(2S)-butan-2-yl]-31-(3-carbamimidamidopropyl)-37-[(1R)-1-hydroxyethyl]-13,34,43-tris(hydroxymethyl)-2,8,11,14,17,23,26,29,32,35,38,41,44,47-tetradecaoxo-3,9,12,15,18,24,27,30,33,36,39,42,45,48-tetradecaazatetracyclo[46.3.0.0^{3,7}.0^{18,22}]henpentacontan-25-yl]acetic acid] | 40.4 | 107

The next lines start with the values.

Ki (Prothrombin) [µM] | Ki [1] [µM] | SMILES
7.63 | 0.857 | CC[C@H](C)[C@@H]1NC(=O)[C@@H]2CCCN2C(=O)[C@@H]2CCCN2C(=O)[C@H]([C@@H](C)CC)NC(=O)[C@H](CO)NC(=O)[C@H](CCCCN)NC(=O)[C@H]([C@@H](C)O)NC(=O)[C@@H]2CSSC[C@H](NC1=O)C(=O)N[C@@H](Cc1ccccc1)C(=O)N1CCC[C@H]1C(=O)N[C@@H](CC(=O)O)C(=O)NCC(=O)N[C@@H](CCCCN=C(N)N)C(=O)N2 [2-[(1R,4S,7S,13S,19S,22S,25S,28S,31R,34S,40S,43S,49S)-25-(4-aminobutyl)-49-benzyl-4,19-bis[(2S)-butan-2-yl]-34-(4-carbamimidamidobutyl)-28-[(1R)-1-hydroxyethyl]-22-(hydroxymethyl)-3,6,12,18,21,24,27,30,33,36,39,42,48,51-tetradecaoxo-53,54-dithia-2,5,11,17,20,23,26,29,32,35,38,41,47,50-tetradecaazapentacyclo[29.20.4.0^{7,11}.0^{13,17}.0^{43,47}]pentapentacontan-40-yl]acetic acid]
164 | 90 | CC[C@H](C)[C@@H]1NC(=O)[C@@H]2CCCN2C(=O)[C@@H]2CCCN2C(=O)[C@H]([C@@H](C)CC)NC(=O)[C@H](CO)NC(=O)[C@H](CCCCN)NC(=O)[C@H]([C@@H](C)O)NC(=O)[C@@H]2CSSC[C@H](NC1=O)C(=O)N[C@@H](Cc1ccccc1)C(=O)N1CCC[C@H]1C(=O)N[C@@H](CC(=O)O)C(=O)NCC(=O)N[C@@H](Cc1ccc(N=C(N)N)cc1)C(=O)N2 [2-[(1R,4S,7S,13S,19S,22S,25S,28S,31R,34S,40S,43S,49S)-25-(4-aminobutyl)-49-benzyl-4,19-bis[(2S)-butan-2-yl]-34-[(4-carbamimidamidophenyl)methyl]-28-[(1R)-1-hydroxyethyl]-22-(hydroxymethyl)-3,6,12,18,21,24,27,30,33,36,39,42,48,51-tetradecaoxo-53,54-dithia-2,5,11,17,20,23,26,29,32,35,38,41,47,50-tetradecaazapentacyclo[29.20.4.0^{7,11}.0^{13,17}.0^{43,47}]pentapentacontan-40-yl]acetic acid]
> 2500 | 2.33 | CC[C@H](C)[C@@H]1NC(=O)[C@H](CO)NC(=O)[C@H](CCCCN)NC(=O)[C@H]([C@@H](C)O)NC(=O)[C@@H]2CSSC[C@H](NC(=O)[C@H](CCC(N)=O)NC(=O)[C@@H]3CCCN3C(=O)[C@@H]3CCCN3C1=O)C(=O)N[C@@H](Cc1ccccc1)C(=O)N1CCC[C@H]1C(=O)N[C@@H](CC(=O)O)C(=O)NCC(=O)N[C@@H](CCCN=C(N)N)C(=O)N2 [2-[(1R,4S,7S,13S,19S,22S,25S,28S,31R,34S,40S,43S,49S)-25-(4-aminobutyl)-49-benzyl-19-[(2S)-butan-2-yl]-34-(3-carbamimidamidopropyl)-4-(2-carbamoylethyl)-28-[(1R)-1-hydroxyethyl]-22-(hydroxymethyl)-3,6,12,18,21,24,27,30,33,36,39,42,48,51-tetradecaoxo-53,54-dithia-2,5,11,17,20,23,26,29,32,35,38,41,47,50-tetradecaazapentacyclo[29.20.4.0^{7,11}.0^{13,17}.0^{43,47}]pentapentacontan-40-yl]acetic acid] (cyclo(CFPDGRCTKSIPPQ); disulfide 1-7)
